# In patent publication US20250170114A1, “METHODS OF TREATMENT USING T-TYPE CALCIUM CHANNEL MODULATORS” (Praxis Precision Medicines, Inc., priority 2022, published 2025):
# Tests used:
# [1] = test system: upper limb tremor in participants with ET; assay: Phase 2 trial in essential tremor (Part A, Part B OLT, Part B RWD): TETRAS performance subscale, ADL and mADL scores; type: in vivo, human; design: key to TETRAS ADL Randomization Baseline Mean: TETRAS ADL: 12 items each rated 0 to 4
# From the text: In some embodiments, the compound of Formula (I) or a pharmaceutically acceptable salt thereof (e.g., the HCl salt), when administered in combination with at least one of propranolol, primidone, topiramate, or a pharmaceutically acceptable salt thereof can reduce tremor severity by at least about 20% when measured by The Essential Tremor Rating Assessment Scale (TETRAS). The term “TETRAS” as used herein refers to a scale developed to quantify severity of ET and its impact on daily activities. It has an activities of daily living (ADL) section and a performance section. The ADL section has 12 items rated between 0 to 4, and the performance section has 9 items rated between 0 to 4. See, e.g., Elble, R. R., The Essential Tremor Rating Assessment Scale, J. Neurology Neuromed. 2016, 1(4):34-38. This multi-center clinical trial assessed the efficacy, safety, tolerability, and PK of the HCl salt compound of Formula (I) in participants aged 18 years of age or older who have had signs and symptoms consistent with ET for at least 3 years, with an onset before age 65. The clinical trial was conducted in 2 parts (Part A and Part B). Both parts consisted of 3 periods: Screening/Baseline, Intervention, and Safety Follow-up Periods. Part A of the clinical trial was open-label and assessed the safety and tolerability of the study drug, as well as the overall magnitude and pattern of change in ET severity. Daily dose levels of the HCl salt compound of Formula (I) were titrated from 20 mg (Day 1 to Day 7) to 40 mg (Days 8 to 14). Part B of the clinical trial consisted of both an open-label titration phase and a randomized, double-blind, placebo-controlled withdrawal phase. Part B assessed the safety and tolerability of the study drug, as well as the overall magnitude and pattern of change in ET severity and the duration of that effect. During the open-label titration phase, the daily dose levels of the HCl salt compound of Formula (I) were titrated from 20 mg (Days 1 to 3) to 40 mg (Days 4 to 7) to 60 mg (Days 8 to 14) to 80 mg (Days 15 to 21) to 100 mg (Days 22 to 28) to 120 mg (Days 29 to 42) or the highest tolerated dose. In the randomized, double-blind, placebo-controlled withdrawal phase, participants were either maintained on their final open-label dose or switched to placebo for an additional 14 days (Days 43 to 56). Part A. On Day 1, participants received a 20 mg dose of study drug, administered in the morning. Participants remained in a clinical setting under medical observation for approximately 6 hours. TETRAS Performance assessments were performed before dosing and 6 hours post-dose. After the first dose, participants continued QAM dosing at home after breakfast through Day 7. Participants returned to the clinic on Day 7 for efficacy testing at the 20 mg dose level. On Day 8, the dose increased to 40 mg QAM after breakfast through Day 14. Participants returned to the clinic on Day 14 for efficacy testing at the 40 mg dose level. Participants who agreed to optional additional PK sampling remained overnight in the clinic on Day 1, Day 7, and Day 14. Key safety measures included clinical laboratory evaluations, 12-lead ECG, C-SSRS, and vital signs. Key efficacy assessments included the TETRAS Performance subscale, TETRAS Upper Limb using accelerometry, CGI, and PGI-C. Blood samples were obtained for the determination of study drug plasma concentrations using a validated bioanalytical method and may also be used for method development and/or metabolite characterization. On Day 1, participants received a 20 mg dose of study drug on an empty stomach (at least 1 hour before breakfast). Participants remained in a clinical setting under medical observation for approximately 6 hours. TETRAS Performance assessments were performed before dosing and 6 hours (±2) post-dose. For dosing on Day 2 through Day 41, participants were instructed to dose QAM at least 1 hour before breakfast at home. Participants continued taking study drug 20 mg QAM at home through Day 3. […]
# [2] = Plasma and brain tissue concentrations in rats after harmaline testing; type: in vivo, rat; settings: collected immediately after harmaline testing
# Procedure: Plasma and brain tissue sample collection (at 90 min post dosing of study compound) was evaluated in […]. N=15 in each group. Plasma and brain tissue samples were collected immediately after harmaline testing. Plasma sample number: 5×15=75. Brain tissue sample number: 5×15=75.
# [3] = Part B OLT, Day 7, N = 10, change from pre-dose baseline
# [4] = Part B OLT, Day 21, N = 12, change from pre-dose baseline
# [5] = Part B OLT, Day 42, 6 hours post-dose, N = 11, change from pre-dose baseline
# [6] = Part B RWD, Day 56, study drug group N = 6, change from randomization baseline, last line of the cell group
# [7] = Part B RWD, study drug group N = 6, Day 42 post-dose value
structure (smiles),measurement,setting,value
CC(C)(C)NC(=O)CN1CCC(CNC(=O)c2cc(F)cc(Cl)c2)CC1.Cl [Study drug],"response (e.g., reduced tremor symptoms) of ET patients","[1]; ET patients who were taking propranolol hydrochloride, phase 2 clinical trial",responded favorably
same,all TETRAS performance subscale-derived scores after washout,"[1]; Part A, Day 21, after a 1-week washout period",returned to near pre-dose baseline levels
same,mADL (TETRAS modified total score) CTA LS Mean %,[1]; [3],−18.49%
same,mADL (TETRAS modified total score) Score CFB LS Mean,[1]; [3],−2.862
same,TETRAS CULS Score CFB LS Mean,[1]; [4],1.320
same,mADL (TETRAS modified total score) CTA LS Mean %,[1]; [4],−14.31%
same,mADL (TETRAS modified total score) Score CFB LS Mean,[1]; [4],−2.812
same,mADL (TETRAS modified total score) CTA LS Mean %,[1]; [5],−42.04%
same,mADL (TETRAS modified total score) Score CFB LS Mean,[1]; [5],−6.669
same,TETRAS ADL LS Mean Difference: Study drug - Placebo (95% CI),"[1]; Part B RWD, Day 56","−9.578 (−18.9020, −0.2546)"
same,TETRAS CULS LS Mean Difference: Study drug - Placebo (95% CI),"[1]; Part B RWD, Day 56","−1.896 (−8.7365, 4.9451)"
same,TETRAS PSTS LS Mean Difference: Study drug - Placebo (95% CI),"[1]; Part B RWD, Day 56","−3.025 (−11.2090, 5.1595)"
same,TETRAS ULS LS Mean Difference: Study drug - Placebo (95% CI),"[1]; Part B RWD, Day 56","−0.253 (−4.9188, 4.4129)"
same,mADL LS Mean Difference: Study drug - Placebo (95% CI),"[1]; Part B RWD, Day 56","−8.439 (−15.3856, −1.4916)"
same,mADL (TETRAS modified total score) LS Mean CFB,"[1]; Part B RWD, Day 56, study drug group N = 6, change from randomization baseline",1.350
same,TETRAS ADL Mean CFB,[1]; [6],5.84
same,mADL (TETRAS modified total score) Mean CFB,[1]; [6],8.45
same,mADL LS Mean Difference: Study drug - Placebo (95% CI),"[1]; Part B RWD, Day 56, listed as study drug",−8.439
same,TETRAS ADL LS Mean Difference: Study drug - Placebo (95% CI),"[1]; Part B RWD, Day 70","−5.988 (−16.8132, 4.8377)"
same,TETRAS CULS LS Mean Difference: Study drug - Placebo (95% CI),"[1]; Part B RWD, Day 70","−0.964 (−6.5938, 4.6660)"
same,TETRAS PSTS LS Mean Difference: Study drug - Placebo (95% CI),"[1]; Part B RWD, Day 70","−1.277 (−7.5286, 4.9741)"
same,TETRAS ULS LS Mean Difference: Study drug - Placebo (95% CI),"[1]; Part B RWD, Day 70","−0.316 (−3.3765, 2.7441)"
same,mADL LS Mean Difference: Study drug - Placebo (95% CI),"[1]; Part B RWD, Day 70","−3.236 (−12.3264, 5.8538)"
same,mADL (TETRAS modified total score) LS Mean CFB,"[1]; Part B RWD, Day 70 (follow-up), study drug group N = 6, change from randomization baseline",4.353
same,TETRAS ADL Mean CFB,"[1]; Part B RWD, Day 70 (follow-up), study drug group N = 6, change from randomization baseline, last line of the cell group",18.73
same,TETRAS ADL Randomization Baseline Mean,[1]; [7],22.17
same,TETRAS CULS Randomization Baseline Mean,[1]; [7],19.33
same,TETRAS PS Item 6: Archimedes Spiral (Left) Randomization Baseline Mean (SD),[1]; [7],1.75 (0.524)
same,TETRAS PS Item 6: Archimedes Spiral (Right) Randomization Baseline Mean (SD),[1]; [7],1.75 (0.247)
same,TETRAS PS Item 7: Handwriting Randomization Baseline Mean (SD),[1]; [7],1.75 (1.405)
same,TETRAS PSTS Randomization Baseline Mean,[1]; [7],22.83
same,TETRAS ULS Randomization Baseline Mean,[1]; [7],10.25
same,mADL (TETRAS modified total score) Randomization Baseline Mean,[1]; [7],12.17
same,"all TETRAS performance subscale-derived, TETRAS ADL-derived, and quality of life measures after washout","[1]; Part B, Day 70, after a 1-week washout period",returned to near pre-dose baseline levels
same,plasma and brain concentrations,[2],consistent with those measured in previous studies
